In general, IC50 refers to the midpoint of a concentration-inhibition curve. Low values mean higher potency, high ones lower potency.

This is an account of results in ChEMBL document CHEMBL1158869, “Bioactive iridoids and a new lignan from Allamanda cathartica and Himatanthus fallax from the Suriname rainforest” (J Nat Prod, 1997).

For test [1], the system named is M109. Description: Cytotoxicity against mouse M109 cells. The format is functional, cell-based.
Test [2] concerns Saccharomyces cerevisiae. Description: Antimicrobial activity against yeast Sc7. The format is functional.

≈ marks a conversion by molar mass, not a printed value.

As for `C/C=C1\C(=O)O[C@]23C=C[C@@H]4C(C(=O)OC)=CO[C@H](O[C@@H]12)[C@@H]43` [ISOPLUMERICIN], in test [1], inhibition was half-maximal at 25 µg/mL (≈ 86.1 µM) (IC50). In test [2], this compound came in with an IC12 of 42 µg/mL.

Compound `C/C=C1/C(=O)O[C@]23C=C[C@@H]4C(C(=O)OC)=CO[C@H](O[C@@H]12)[C@@H]43` [PLUMERICIN] yielded a half-inhibitory concentration (IC50) in test [1] of 100 µg/mL (≈ 345 µM). Further, the IC12 in test [2] was determined as 74 µg/mL.
